Results reported in ChEMBL document CHEMBL4823292, “Design, synthesis, and functional evaluation of triazine-based bivalent agents that simultaneously target the active site and hot spot of phosphatase Cdc25B” (Bioorg Med Chem Lett, 2021).
Activity calls are given as the source filed them. The calls are words filed in the database; no cut-off is given here.

What was measured:
[1] = target: T1, M-phase inducer phosphatase 1 (Homo sapiens) (UniProt P30304); assay: Inhibition of Cdc25A (unknown origin) at 1 to 500 uM by fluorescence assay; settings: dose 1-500 µM
T1 sequence (whole entry): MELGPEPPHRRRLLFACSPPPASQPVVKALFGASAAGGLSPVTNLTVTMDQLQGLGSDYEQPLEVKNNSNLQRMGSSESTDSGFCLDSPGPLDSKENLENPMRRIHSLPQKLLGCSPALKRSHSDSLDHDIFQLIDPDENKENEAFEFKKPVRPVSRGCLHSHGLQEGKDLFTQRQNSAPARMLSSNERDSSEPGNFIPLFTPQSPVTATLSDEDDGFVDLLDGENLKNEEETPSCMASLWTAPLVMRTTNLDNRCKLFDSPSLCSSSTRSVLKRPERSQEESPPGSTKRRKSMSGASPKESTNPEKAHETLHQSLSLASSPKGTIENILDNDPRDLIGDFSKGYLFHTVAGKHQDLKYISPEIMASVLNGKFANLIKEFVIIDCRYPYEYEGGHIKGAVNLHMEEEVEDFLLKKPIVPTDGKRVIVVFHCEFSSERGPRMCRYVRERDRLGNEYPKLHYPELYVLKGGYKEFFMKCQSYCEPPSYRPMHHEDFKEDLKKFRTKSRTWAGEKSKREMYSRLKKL

[2] = target: T2, M-phase inducer phosphatase 2 (Homo sapiens) (UniProt P30305); assay: Inhibition of recombinant human Cdc25B ([…] residues) using O-methylfluorescein phosphate as substrate at 1 to 500 uM by fluorescence assay; settings: dose 1-500 µM
T2 sequence (whole entry): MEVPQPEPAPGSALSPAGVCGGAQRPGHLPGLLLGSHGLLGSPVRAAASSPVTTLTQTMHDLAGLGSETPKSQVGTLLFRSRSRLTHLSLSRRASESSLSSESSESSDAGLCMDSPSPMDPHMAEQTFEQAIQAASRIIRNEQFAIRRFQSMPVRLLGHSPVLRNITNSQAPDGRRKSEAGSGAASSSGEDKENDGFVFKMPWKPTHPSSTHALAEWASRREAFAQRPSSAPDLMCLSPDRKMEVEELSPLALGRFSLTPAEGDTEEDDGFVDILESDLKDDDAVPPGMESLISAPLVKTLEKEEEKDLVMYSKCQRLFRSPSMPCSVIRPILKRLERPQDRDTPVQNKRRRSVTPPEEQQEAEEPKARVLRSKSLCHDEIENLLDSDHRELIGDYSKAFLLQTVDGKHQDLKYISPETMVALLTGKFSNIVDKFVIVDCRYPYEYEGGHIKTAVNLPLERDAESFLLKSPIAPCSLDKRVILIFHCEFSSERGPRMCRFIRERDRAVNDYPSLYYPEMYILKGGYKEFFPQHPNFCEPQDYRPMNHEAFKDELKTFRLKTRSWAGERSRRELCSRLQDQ

[3] = target: T2, M-phase inducer phosphatase 2 (Homo sapiens); assay: Inhibition of recombinant human Cdc25B ([…] residues) using O-methylfluorescein phosphate as substrate at 1 to 30 uM by fluorescence assay; settings: dose 1-30 µM
[4] = target: T3, M-phase inducer phosphatase 2 (Homo sapiens, UniProt P30305); assay: Competitive inhibition of recombinant human Cdc25B ([…] residues) assessed as hydrolysis of substrate O-methylfluorescein phosphate by Lineweaver-Burk plot analysis
T3 sequence (P30305 whole entry): T2 sequence (whole entry)

[5] = target: T2, M-phase inducer phosphatase 2 (Homo sapiens); assay: Inhibition of recombinant human Cdc25B ([…] residues) using O-methylfluorescein phosphate as substrate at 30 uM by fluorescence assay
[6] = target: T1, M-phase inducer phosphatase 1 (Homo sapiens); assay: Inhibition of Cdc25A (unknown origin) at 1 to 30 uM; settings: dose 1-30 µM

SMILES	inhibition [1]	inhibition (active/inactive) [2]	also measured
C[C@H](Nc1nc(NCCCCCNC(=O)CCCNc2nc(N[C@@H](C)C(=O)O)nc(N[C@@H](C)C(=O)O)n2)nc(N[C@@H](C)C(=O)O)n1)C(=O)O	Active	Active	
COC(=O)[C@H](CCCCN)Nc1nc(NCCCCCNC(=O)CCCNc2nc(N[C@@H](CCCCN)C(=O)OC)nc(N[C@@H](CCCCN)C(=O)OC)n2)nc(N[C@@H](CCCCN)C(=O)OC)n1		Active	
O=C(O)C[C@H](Nc1nc(O)nc(N[C@@H](Cc2c[nH]c3ccccc23)C(=O)O)n1)C(=O)O			inhibition [3]: inactive
CC(C)C[C@H](Nc1nc(NCCCCCNC(=O)CCCNc2nc(N[C@@H](CC(=O)O)C(=O)O)nc(N[C@@H](Cc3ccc(O)cc3)C(=O)O)n2)nc(N[C@@H](C)C(=O)O)n1)C(=O)O	inactive	Active	
O=C(O)C[C@H](Nc1nc(O)nc(N[C@@H](Cc2ccc(O)cc2)C(=O)O)n1)C(=O)O			inhibition [3]: inactive
O=C(O)C[C@H](Nc1nc(NCCCC(=O)NCCCCCNc2nc(N[C@@H](CC(=O)O)C(=O)O)nc(N[C@@H](Cc3c[nH]c4ccccc34)C(=O)O)n2)nc(N[C@@H](Cc2ccc(O)cc2)C(=O)O)n1)C(=O)O	inactive	Active	Ki [4]: 2.6 µM; inhibition [5]: 43%
C[C@H](Nc1nc(NCCCCCNC(=O)CCCNc2nc(N[C@@H](CC(=O)O)C(=O)O)nc(N[C@@H](Cc3ccc(O)cc3)C(=O)O)n2)nc(N[C@@H](C)C(=O)O)n1)C(=O)O		Active	
O=C(O)C[C@H](Nc1nc(NCCCCCCCCCCNc2nc(N[C@@H](CC(=O)O)C(=O)O)nc(N[C@@H](Cc3c[nH]c4ccccc34)C(=O)O)n2)nc(N[C@@H](Cc2ccc(O)cc2)C(=O)O)n1)C(=O)O			inhibition [6]: Active; inhibition [5]: 1.5%
